Source: patent US8580763B2, “2, 6-dinitrogen-containing substituted purine derivatives, the preparation and uses thereof” (Zhanggui Wu, priority 2007, dated 2013)

System: non-small cell lung cancer
Assay: anticancer activity in vitro (SRB, MTT), non-small cell lung cancer
Format: cell-based
Details: action time about 72 h
Experimental: (§1) Antitumor activity tests in vitro and in vivo are carried out to the parital compounds prepared from the above examples. Wherein the method of SRB, MTT is used in vitro, and the action time is about 72 h. Inhibitory effects of the compounds on the growth of mouse Conlon26 cancer are shown in Table 2, inhibitory effects of the compounds on the growth of mouse S180 sarcoma are shown in Table 3.

Q: Which IC50 does the source give for c1cc(Nc2nc(NC3CC3)c3nc[nH]c3n2)ccn1 [Compound XXIX] here?
A: 7.55 µM

Q: Which IC50 does the source give for c1cnc2ccc(Nc3nc(N4CCNCC4)c4nc[nH]c4n3)cc2c1 [Compound XXI] here?
A: 6.27 µM

Q: Which IC50 does the source give for c1ccc(Nc2nc(NC3CC3)c3nc[nH]c3n2)nc1 [Compound XXVIII] here?
A: 61.4 µM

Q: With Cc1cc(Nc2nc(NC3CC3)c3nc[nH]c3n2)c2ccccc2n1 [Compound XXV] as the compound, how does the IC50 read?
A: 13.8 µM

Q: How did the IC50 turn out when O=[N+]([O-])c1ccc(Nc2nc(NC3CC3)c3nc[nH]c3n2)cc1 [Compound XXX] was run?
A: 11.1 µM

Q: Which IC50 does the source give for CC(CO)Nc1nc(Nc2ccc3ncccc3c2)nc2[nH]cnc12 (stereo not drawn) [Compound X] here?
A: 12.5 µM

System: colon cancer HT-29
Assay: anticancer activity in vitro (SRB, MTT), colon cancer HT-29
Format: cell-based
Details: Homo sapiens, action time about 72 h
Experimental: as §1

Q: How did the IC50 turn out when c1cc(Nc2nc(NC3CC3)c3nc[nH]c3n2)ccn1 [Compound XXIX] was run?
A: 16.8 µM

Q: How did the IC50 turn out when c1cnc2ccc(Nc3nc(N4CCNCC4)c4nc[nH]c4n3)cc2c1 [Compound XXI] was run?
A: 2.74 µM

Q: How did the IC50 turn out when c1ccc(Nc2nc(NC3CC3)c3nc[nH]c3n2)nc1 [Compound XXVIII] was run?
A: 81.4 µM

Q: For Cc1cc(Nc2nc(NC3CC3)c3nc[nH]c3n2)c2ccccc2n1 [Compound XXV], which IC50 is on record?
A: 2.25 µM

Q: O=[N+]([O-])c1ccc(Nc2nc(NC3CC3)c3nc[nH]c3n2)cc1 [Compound XXX] was tested. Which IC50 did it give?
A: > 100 µM

Q: CC(CO)Nc1nc(Nc2ccc3ncccc3c2)nc2[nH]cnc12 (stereo not drawn) [Compound X] was tested. Which IC50 did it give?
A: 24.2 µM

System: human liver cancer Bel-7402
Assay: anticancer activity in vitro (SRB, MTT), human liver cancer Bel-7402
Format: cell-based
Details: action time about 72 h
Experimental: as §1

Q: Which IC50 does the source give for c1cc(Nc2nc(NC3CC3)c3nc[nH]c3n2)ccn1 [Compound XXIX] here?
A: 4.89 µM

Q: How did the IC50 turn out when c1cnc2ccc(Nc3nc(N4CCNCC4)c4nc[nH]c4n3)cc2c1 [Compound XXI] was run?
A: 2.33 µM

Q: How did the IC50 turn out when c1ccc(Nc2nc(NC3CC3)c3nc[nH]c3n2)nc1 [Compound XXVIII] was run?
A: 80.2 µM

Q: For Cc1cc(Nc2nc(NC3CC3)c3nc[nH]c3n2)c2ccccc2n1 [Compound XXV], which IC50 is on record?
A: 5.28 µM

Q: How did the IC50 turn out when O=[N+]([O-])c1ccc(Nc2nc(NC3CC3)c3nc[nH]c3n2)cc1 [Compound XXX] was run?
A: > 100 µM

Q: For CC(CO)Nc1nc(Nc2ccc3ncccc3c2)nc2[nH]cnc12 (stereo not drawn) [Compound X], which IC50 is on record?
A: 1.78 µM

System: lymph cancer Ramos
Assay: anticancer activity in vitro (SRB, MTT), lymph cancer Ramos
Format: cell-based
Details: Homo sapiens, action time about 72 h
Experimental: as §1

Q: For c1cc(Nc2nc(NC3CC3)c3nc[nH]c3n2)ccn1 [Compound XXIX], which IC50 is on record?
A: 4.14 µM

Q: Which IC50 does the source give for c1cnc2ccc(Nc3nc(N4CCNCC4)c4nc[nH]c4n3)cc2c1 [Compound XXI] here?
A: 2.33 µM

Q: For c1ccc(Nc2nc(NC3CC3)c3nc[nH]c3n2)nc1 [Compound XXVIII], which IC50 is on record?
A: 51.9 µM

Q: With Cc1cc(Nc2nc(NC3CC3)c3nc[nH]c3n2)c2ccccc2n1 [Compound XXV] as the compound, how does the IC50 read?
A: 5.28 µM

Q: O=[N+]([O-])c1ccc(Nc2nc(NC3CC3)c3nc[nH]c3n2)cc1 [Compound XXX] was tested. Which IC50 did it give?
A: > 100 µM

Q: How did the IC50 turn out when CC(CO)Nc1nc(Nc2ccc3ncccc3c2)nc2[nH]cnc12 (stereo not drawn) [Compound X] was run?
A: 4.96 µM

System: mouse Colon26 cancer
Assay: inhibitory effects on the growth of mouse Colon26 cancer in vivo
Details: Colon26 mice, 30 mg/kg i.p.
Experimental: as §1

Q: What does the source list for O=P1(N(CCCl)CCCl)NCCCO1 (stereo not drawn) [CTX, cyclophosphamide, reference compound]?
A: End body weight: 20.33 g; Inhibition rate: 78.14%; Tumor removed body weight: 19.93 g; Tumor weight: 0.40 g

Same assay, conditions: Colon26 mice, 30 mg/kg i.p.; baseline

Q: With O=P1(N(CCCl)CCCl)NCCCO1 (stereo not drawn) [CTX, cyclophosphamide, reference compound] as the compound, how does the Initial body weight read?
A: 20.03 g

Same assay, conditions: Colon26 mice, 100 mg/kg p.o.

Q: How did the End body weight turn out when CN1CCN(c2nc(Nc3ccc4ncccc4c3)nc3[nH]cnc23)CC1 [Compound XII] was run?
A: 19.16 g

Q: What about the Inhibition rate of the same compound?
A: 35.18%

Q: And the “Tumor removed body weight” value?
A: 17.98 g

Q: And the Tumor weight?
A: 1.19 g

Q: For CN(C)c1nc(Nc2ccc3ncccc3c2)nc2[nH]cnc12 [Compound XX], which End body weight is on record?
A: 18.74 g

Q: And the Inhibition rate?
A: 72.31%

Q: What about the “Tumor removed body weight” value of the same compound?
A: 18.23 g

Q: What about the Tumor weight of the same compound?
A: 0.51 g

Same assay, conditions: Colon26 mice, 100 mg/kg p.o.; baseline

Q: Which Initial body weight does the source give for CN1CCN(c2nc(Nc3ccc4ncccc4c3)nc3[nH]cnc23)CC1 [Compound XII] here?
A: 19.06 g

Q: For CN(C)c1nc(Nc2ccc3ncccc3c2)nc2[nH]cnc12 [Compound XX], which Initial body weight is on record?
A: 19.64 g

Same assay, conditions: Colon26 mice, 150 mg/kg p.o.

Q: How did the End body weight turn out when CN1CCN(c2nc(Nc3ccc4ncccc4c3)nc3[nH]cnc23)CC1 [Compound XII] was run?
A: 18.28 g

Q: What about the Inhibition rate of the same compound?
A: 50.16%

Q: And the “Tumor removed body weight” value?
A: 17.36 g

Q: And the Tumor weight?
A: 0.91 g

Q: With CN(C)c1nc(Nc2ccc3ncccc3c2)nc2[nH]cnc12 [Compound XX] as the compound, how does the End body weight read?
A: 18.68 g

Q: And the Inhibition rate?
A: 79.47%

Q: What about the “Tumor removed body weight” value of the same compound?
A: 18.31 g

Q: What about the Tumor weight of the same compound?
A: 0.38 g

Same assay, conditions: Colon26 mice, 150 mg/kg p.o.; baseline

Q: For CN1CCN(c2nc(Nc3ccc4ncccc4c3)nc3[nH]cnc23)CC1 [Compound XII], which Initial body weight is on record?
A: 19.16 g

Q: For CN(C)c1nc(Nc2ccc3ncccc3c2)nc2[nH]cnc12 [Compound XX], which Initial body weight is on record?
A: 19.90 g

System: mouse S180 sarcoma
Assay: inhibitory effects on the growth of mouse S180 sarcoma in vivo
Details: S180 mice, 30 mg/kg i.p.
Experimental: as §1

Q: With O=P1(N(CCCl)CCCl)NCCCO1 (stereo not drawn) [CTX, cyclophosphamide, reference compound] as the compound, how does the End body weight read?
A: 20.31 g

Q: And the Inhibition rate?
A: 79.82%

Q: What about the “Tumor removed body weight” value of the same compound?
A: 19.85 g

Q: And the Tumor weight?
A: 0.46 g

Same assay, conditions: S180 mice, 30 mg/kg i.p.; baseline

Q: How did the Initial body weight turn out when O=P1(N(CCCl)CCCl)NCCCO1 (stereo not drawn) [CTX, cyclophosphamide, reference compound] was run?
A: 19.65 g

Same assay, conditions: S180 mice, 100 mg/kg p.o.

Q: Which results are given for CN1CCN(c2nc(Nc3ccc4ncccc4c3)nc3[nH]cnc23)CC1 [Compound XII]?
A: End body weight: 22.58 g; Inhibition rate: 28.19%; Tumor removed body weight: 20.94 g; Tumor weight: 1.63 g

Q: CN(C)c1nc(Nc2ccc3ncccc3c2)nc2[nH]cnc12 [Compound XX] was tested. Which End body weight did it give?
A: 16.53 g

Q: And the Inhibition rate?
A: 72.19%

Q: What about the “Tumor removed body weight” value of the same compound?
A: 15.90 g

Q: What about the Tumor weight of the same compound?
A: 0.63 g

Same assay, conditions: S180 mice, 100 mg/kg p.o.; baseline

Q: For CN1CCN(c2nc(Nc3ccc4ncccc4c3)nc3[nH]cnc23)CC1 [Compound XII], which Initial body weight is on record?
A: 19.22 g

Q: With CN(C)c1nc(Nc2ccc3ncccc3c2)nc2[nH]cnc12 [Compound XX] as the compound, how does the Initial body weight read?
A: 19.96 g

Same assay, conditions: S180 mice, 200 mg/kg p.o.

Q: Which results are given for CN1CCN(c2nc(Nc3ccc4ncccc4c3)nc3[nH]cnc23)CC1 [Compound XII]?
A: End body weight: 21.35 g; Inhibition rate: 46.96%; Tumor removed body weight: 20.14 g; Tumor weight: 1.21 g

Q: What does the source list for CN(C)c1nc(Nc2ccc3ncccc3c2)nc2[nH]cnc12 [Compound XX]?
A: End body weight: 16.80 g; Inhibition rate: 73.38%; Tumor removed body weight: 16.20 g; Tumor weight: 0.61 g

Same assay, conditions: S180 mice, 200 mg/kg p.o.; baseline

Q: For CN1CCN(c2nc(Nc3ccc4ncccc4c3)nc3[nH]cnc23)CC1 [Compound XII], which Initial body weight is on record?
A: 19.46 g

Q: CN(C)c1nc(Nc2ccc3ncccc3c2)nc2[nH]cnc12 [Compound XX] was tested. Which Initial body weight did it give?
A: 19.58 g

System: four different cancer cells
Assay: antitumor activity in vitro, summary over the four cancer cells of Table 1
Format: cell-based
Details: summary of Table 1
Experimental: as §1
Compared with compound I, compound XX has better antitumor effects.

Q: Which “antitumor activity to four different cancer cells (in words)” value does the source give for c1cnc2ccc(Nc3nc(N4CCNCC4)c4nc[nH]c4n3)cc2c1 [Compound XXI] here?
A: higher antitumor activity
